{"source": "paper PMC11674305", "about": "“Inhibition of Neural Crest Cell Migration by Strobilurin Fungicides and Other Mitochondrial Toxicants” (Cells, 2024)", "key": {"[1]": {"design": "species or system human", "procedure": "Figure 8 Consideration of biokinetics for refined hazard (potency) estimates. (A) Concentration–response curve of the oxygen consumption rate (OCR) in NCCs cultured in galactose medium after a 24 h treatment with picoxystrobin. The highest tested concentration was 2.8 µM (highest non-cytotoxic exposure). Data are shown for two independent experiments (as in Figure 7B). (B) The cMINC assay was performed as in Figure 1, but the NCCs were cultured in galactose medium. The insert box gives picoxystrobin potency data for migration (M) and cytotoxicity (V), and their ratio. Data are expressed as means ± SEM from seven independent experiments. (C) Schematic illustration of the distribution of picoxystrobin in a cell culture well according to the in silico biokinetics prediction model. Data for each compartment are given either as percentage (left) or as concentrations (right) for a nominal concentration of 1 µM. (D) Tabular overview of the distribution of picoxystrobin in the different compartments at a nominal concentration of 1 µM. Mediumt: total medium; Mediumb: bound in medium; Mediumu: unbound in medium; Cellst: total amount in cells; CellsM: mitochondrial compartment; CellsL: lysosomal compartment; CellsR: “rest” of the cells. […] (E) Synoptic overview of predicted and measured concentrations of picoxystrobin. […]"}, "[2]": {"experiment": "Estimate of maximal tolerable/acceptable exposure", "design": "species or system human", "settings": "per day; LOEL with safety factor of 100, same as ADI of FAO/WHO 2012 report", "procedure": "An estimate of the maximal external exposure was obtained as the next step of the study. We used two different approaches, based on (i) setting the acceptable daily intake as the upper limit and (ii) referring to the no-observed-effect level (NOEL) in an animal study (detailed in Figure 7A). We concluded from both approaches that a plausible upper daily tolerated threshold is 0.09 mg/kg. This value was used in a physiologically based kinetic (PBK) model to obtain concentration time data for different tissues in mothers and their fetus. Assuming a repeated daily exposure, the maximal maternal plasma concentrations were predicted to be in the 200–300 nM range. The maximal steady-state fetal brain concentrations were predicted to be in the 100 nM range (5th and 95th percentiles for exposure in the population of 100 subjects were 60–190 nM) (Figure 7B). […] Next, we used some advanced assays to obtain a better understanding of the potency range of picoxystrobin when used in different experimental setups. […]\nFigure 7 Comparison of internal exposure estimates and primary effect potency. […] Data are expressed as means ± SEM from three independent biological experiments. ^# LOEL of animal study is based on a 90-day dog study (REF: https://www.fao.org/3/i3111e/i3111e.pdf (accessed on 15 June 2024)). *^,§ There is also an old (no longer valid) value by EFSA of 0.043 mg/kg/day from the year 2004 [71]. […]"}, "[3]": {"settings": "cited from earlier work"}}, "data": [{"smiles": "CO/C=C(/C(=O)OC)c1ccccc1COc1cccc(C(F)(F)F)n1", "note": "[Picoxystrobin, picoxystrobin]", "values": [{"measurement": "MoE for fetus (nominal data)", "setting": "[1]", "result": "2-100 fold"}, {"measurement": "upper daily tolerated threshold / estimate of max. exposure [tolerable/acceptable]", "setting": "[2]", "result": 0.09, "unit": "mg/kg"}, {"measurement": "Henry's law constant", "setting": "[3]; at 25 °C, VIVD model input", "result": "6 × 10^−4 Pa*m^3*mol⁻^1"}, {"measurement": "charge characterization", "setting": "[3]; model input", "result": "neutral"}]}]}
